Legend:
[1] = target: T1, CYP3A4 (Homo sapiens, UniProt P08684); assay: Reaction phenotyping with recombinant CYP3A4; type: in vitro ADME; conditions: 1 µM, 50 pmol/mL recombinant CYP3A4, NADPH, 60 min, vs control
T1 construct: purchased Cypex (Dundee, UK); host or cells: bactosomes (bacterial membranes)
Experimental: (§1) Reactions were conducted in triplicate using 0.1 M PPB (pH 7.4) in eight-well tube strips in an 8 × 12 rack. […] The mixture was pre-incubated at 37°C with shaking at approximately 100 rpm for 5 min. Reactions were initiated by the addition of the NADPH-regenerating system and quenched with 200 µL ice-cold acetonitrile containing 50 nM CBZ. The samples were centrifuged at 1,000 × g and 4°C for 20 min, and the supernatants were subjected to LC-QTOF HRMS. […] The reaction was incubated, initiated, terminated, centrifuged then analyzed using the same method described above.
(§2) Reaction phenotyping is the identification of isoforms involved in drug metabolism and is important for the decipherment of drug biotransformation pathways and understanding of possible drug-drug interactions. M6, M7, and M8 were also detected in recombinant CYP incubations.

[2] = tested on: Silensome CYP2D6; assay: Metabolic stability in Silensome CYP2D6 (CYP2D6 contribution); type: in vitro ADME, human; conditions: (CLint control − CLint INH)/CLint control
Experimental: (§3) Metabolic stability of GRL 0617 and formation of M1 and M3 were evaluated using Silensome control, Silensome CYP2D6 and Silensome CYP3A4 incubated with 1 or 10 µM GRL 0617 in the presence of NADPH. Other metabolites were detected less than 1% of parent. […] CYP2D6 played an exclusive role in the formation of M2, but the reactions were not saturated in the concentration range used in this study and thus, the calculated Kcat, and Km were out of the experiment condition.
(§4) In addition, the contribution of specific isoform using Silensomes were evaluated, and calculated parameters were shown in Supplemental Figure S4 and Table 4. […] The contribution of specific CYP 3A4 or CYP2D6 was calculated to be 79.6% or 21.8%, respectively, using equation as equation below. Calculated % CYP isoform contribution = CLintcontrol−ClintINH ⁄ CLintcontrol ([Bohnert et al., 2016]).
(§5) incubated in Silensome control, Silensome CYP2D6, and Silensome CYP3A4 with NADPH for 0, 10,
(§6) 15, 30, 45, 60, or 120 min. The remaining percentages of GRL 0617 are expressed as mean ± SD (n=3).
(§7) (1 picture or pasted object on this page, not shown here)

[3] = tested on: CYP2D6; assay: as above; type: in vitro ADME, human; conditions: human
Experimental: as §3, §4, §5, §6, §7

[4] = target: T2, CYP2D6 (Homo sapiens, UniProt P10635); type: in vitro ADME; set-up: purchased Cypex (Dundee, UK); host or cells: bactosomes (bacterial membranes); conditions: 1 µM, 50 pmol/mL recombinant CYP2D6, NADPH, 60 min, vs control
Experimental: as §1, §2

[5] = target: T2, CYP2D6; conditions: pooled HLMs, substrate cocktail
Experimental: The drug–drug interaction potential was evaluated using a CYP cocktail assay that involved microsomal incubation and NADPH, as described elsewhere ([Lee et al., 2012]). […] The first reactions were initiated by NADPH addition, and each mixture was incubated in a shaking water bath at 37°C for 30 min. The final incubation was performed for 10 min with a total volume of 200 µL by adding substrates (tolbutamide (set B) as a CYP2C9 selective substrate, midazolam (set A) and testosterone (set B) as CYP3A4 selective substrates) and NADPH. The reaction was stopped and quenched by adding 200 µL of ice-cold acetonitrile containing 50 nM CBZ as internal standard, then centrifuged at 3,000 x g for 20 min. The supernatants were injected in LC-QTOF system. IC50 shift values were calculated as the ratio of the IC50 value obtained after pre-incubation without NADPH divided by the IC50 value obtained after 30 min incubation with NADPH.
The LC-QTOF system consisted of an Exion AD LC device (AB Sciex, Framingham, MA, United States) and a TripleTOF 6,600 + system (AB Sciex) equipped with an IonDrive Turbo V source operated in positive TOF information-dependent acquisition (IDA) MS2 scan mode. The TOF scan dwell time was 50 ms, and the 20 × IDA MS2 scan time was acquired with a 30-ms dwell time. […]

T2 sequence (P10635 whole entry): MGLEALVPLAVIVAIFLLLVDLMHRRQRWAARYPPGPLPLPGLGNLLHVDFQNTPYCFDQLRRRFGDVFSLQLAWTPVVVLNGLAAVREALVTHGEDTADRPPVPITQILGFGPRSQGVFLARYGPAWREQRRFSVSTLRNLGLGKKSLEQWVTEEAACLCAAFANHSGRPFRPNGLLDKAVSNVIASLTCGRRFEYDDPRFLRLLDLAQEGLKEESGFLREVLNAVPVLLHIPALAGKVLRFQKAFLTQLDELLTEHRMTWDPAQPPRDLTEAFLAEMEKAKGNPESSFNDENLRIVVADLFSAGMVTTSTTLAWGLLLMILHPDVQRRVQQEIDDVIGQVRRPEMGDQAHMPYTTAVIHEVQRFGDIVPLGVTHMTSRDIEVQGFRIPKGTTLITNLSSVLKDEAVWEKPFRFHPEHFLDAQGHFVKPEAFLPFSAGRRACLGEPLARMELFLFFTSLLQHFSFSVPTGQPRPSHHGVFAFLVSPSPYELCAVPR
T1 sequence (P08684 whole entry): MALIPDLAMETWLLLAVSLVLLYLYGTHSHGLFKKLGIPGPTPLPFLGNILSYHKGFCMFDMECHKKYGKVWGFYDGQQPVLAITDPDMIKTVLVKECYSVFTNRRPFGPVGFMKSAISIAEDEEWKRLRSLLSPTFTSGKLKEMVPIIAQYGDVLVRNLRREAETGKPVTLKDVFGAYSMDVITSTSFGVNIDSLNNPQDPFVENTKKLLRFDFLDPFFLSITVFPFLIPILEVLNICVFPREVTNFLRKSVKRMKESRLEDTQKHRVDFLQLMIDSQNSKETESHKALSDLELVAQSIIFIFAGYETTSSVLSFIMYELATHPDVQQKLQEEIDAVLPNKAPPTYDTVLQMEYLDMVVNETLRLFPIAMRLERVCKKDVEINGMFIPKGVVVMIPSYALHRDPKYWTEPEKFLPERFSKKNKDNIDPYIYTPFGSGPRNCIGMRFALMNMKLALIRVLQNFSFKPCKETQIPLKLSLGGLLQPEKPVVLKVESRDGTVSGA

`Cc1ccc(N)cc1C(=O)N[C@H](C)c1cccc2ccccc12` [GRL0617, 5-amino-2-methyl-N-[(1R)-1-(1-naphthalenyl)ethyl]benzamide] was tested, and the GRL0617 level remaining [1] was 9.48% ± 1.26%, the “Contribution of CYP2D6 to metabolism” value [2] was 21.8% and the half-life at 1 µM [3] was 22.3 min. For the same compound, the microsomal CLint at 1 µM ([3]; Silensome CYP2D6 with NADPH, read-out: Intrinsic clearance (in vitro) Clint) was 31.2 µL/min/mg, the GRL0617 level remaining [4] was 71.46% ± 3.1% and the “Concentrations at which CYP2D6 was inhibited” value [5] was no less than 50 µM.
